Reference: the supplement of paper PMC10307832

What was measured:
Assay in all cases: relative viability (nuclei count vs DMSO), 5 days (fraction); higher = more cells survive
[1] = compound: CC1=C(C(=O)N2C=CSC2=N1)CCN3CCC(=C(C4=CC=CC=C4)C5=CC=C(C=C5)F)CC3 + C[C@@H](Oc1cc(-c2cnn(C3CCNCC3)c2)cnc1N)c1c(Cl)ccc(F)c1Cl [Crizotinib] (partner 1 µM)
Procedure, shortened: (§1)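 Lung cancer cell lines, seeded in 1536-well plates, were treated the following day by pin tool with a single drug or with five library-drug doses (not always all listed) in √10 steps on top of a fixed anchor-drug dose. Cells were fixed and nuclei stained in one step after 5 days, and nuclei were counted. Relative viability is the nuclei count for treated wells divided by that for vehicle wells, reported as medians of duplicate plates.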

[2] = compound: CC1=C(C(=O)N2C=CSC2=N1)CCN3CCC(=C(C4=CC=CC=C4)C5=CC=C(C=C5)F)CC3 + Cc1nc(NC(=O)N2CCC[C@H]2C(N)=O)sc1-c1ccnc(C(C)(C)C(F)(F)F)c1 [Alpelisib] (partner 2 µM)
Procedure, shortened: as §1

[3] = compound: CC1=C(C(=O)N2C=CSC2=N1)CCN3CCC(=C(C4=CC=CC=C4)C5=CC=C(C=C5)F)CC3 + CS(=O)(=O)CCNCc1ccc(-c2ccc3ncnc(Nc4ccc(OCc5cccc(F)c5)c(Cl)c4)c3c2)o1 [Lapatinib] (partner 2 µM)
Procedure, shortened: as §1

[4] = compound: CC1=C(C(=O)N2C=CSC2=N1)CCN3CCC(=C(C4=CC=CC=C4)C5=CC=C(C=C5)F)CC3 + COc1cc2c(Oc3ccc(NC(=O)C4(C(=O)Nc5ccc(F)cc5)CC4)cc3F)ccnc2cc1OCCCN1CCOCC1 [Foretinib] (partner 0.25 µM)
Procedure, shortened: as §1

[5] = compound: CC1=C(C(=O)N2C=CSC2=N1)CCN3CCC(=C(C4=CC=CC=C4)C5=CC=C(C=C5)F)CC3 + CC(C)C[C@H](NC(=O)[C@H](Cc1ccccc1)NC(=O)c1cnccn1)B(O)O [Bortezomib] (partner 0.002 µM)
Procedure, shortened: as §1

[6] = compound: CC1=C(C(=O)N2C=CSC2=N1)CCN3CCC(=C(C4=CC=CC=C4)C5=CC=C(C=C5)F)CC3 + CC1(C)CCC(c2ccc(Cl)cc2)=C(CN2CCN(c3ccc(C(=O)NS(=O)(=O)c4ccc(N[C@H](CCN5CCOCC5)CSc5ccccc5)c(S(=O)(=O)C(F)(F)F)c4)cc3)CC2)C1 [Navitoclax] (partner 0.5 µM)
Procedure, shortened: as §1

[7] = compound: CC1=C(C(=O)N2C=CSC2=N1)CCN3CCC(=C(C4=CC=CC=C4)C5=CC=C(C=C5)F)CC3 + C[C@]1(O)C[C@@H](c2nc(-c3ccc4ccc(-c5ccccc5)nc4c3)c3c(N)nccn32)C1 [Linsitinib] (partner 1 µM)
Procedure, shortened: as §1

[8] = compound: CC1=C(C(=O)N2C=CSC2=N1)CCN3CCC(=C(C4=CC=CC=C4)C5=CC=C(C=C5)F)CC3 + O=C(c1cc(Cc2n[nH]c(=O)c3ccccc23)ccc1F)N1CCN(C(=O)C2CC2)CC1 [Olaparib] (partner 8 µM)
Procedure, shortened: as §1

[9] = compound: CC1=C(C(=O)N2C=CSC2=N1)CCN3CCC(=C(C4=CC=CC=C4)C5=CC=C(C=C5)F)CC3 + CS(=O)(=O)N1CCN(Cc2cc3nc(-c4cccc5[nH]ncc45)nc(N4CCOCC4)c3s2)CC1 [Pictilisib] (partner 1 µM)
Procedure, shortened: as §1

[10] = compound: CC1=C(C(=O)N2C=CSC2=N1)CCN3CCC(=C(C4=CC=CC=C4)C5=CC=C(C=C5)F)CC3
Procedure, shortened: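 Vehicle-anchored 1536-well plates of lung cancer cell lines, held overnight at 37 °C, were pinned with five library-drug doses (not always all listed) spaced by √10. No medium change followed over the next 5 days, after which the cells were fixed, permeabilised and Hoechst-stained together and imaged at 4×. Nuclei were counted with MetaXpress, and viability is treated-well nuclei over vehicle-well nuclei, taken as a median across plates. Plates passed with control CV below 25% and at least one doubling.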

[11] = compound: CC1=C(C(=O)N2C=CSC2=N1)CCN3CCC(=C(C4=CC=CC=C4)C5=CC=C(C=C5)F)CC3 + O=C(CCCCCCC(=O)Nc1ccccc1)NO [Vorinostat] (partner 1 µM)
Procedure, shortened: as §1

[12] = compound: CC1=C(C(=O)N2C=CSC2=N1)CCN3CCC(=C(C4=CC=CC=C4)C5=CC=C(C=C5)F)CC3 + Cc1cc(Nc2cc(N3CCN(C)CC3)nc(Sc3ccc(NC(=O)C4CC4)cc3)n2)n[nH]1 [Tozasertib] (partner 0.1 µM)
Procedure, shortened: as §1

[13] = compound: CC1=C(C(=O)N2C=CSC2=N1)CCN3CCC(=C(C4=CC=CC=C4)C5=CC=C(C=C5)F)CC3 + Cc1nc(Nc2ncc(C(=O)Nc3c(C)cccc3Cl)s2)cc(N2CCN(CCO)CC2)n1 [Dasatinib] (partner 0.075 µM)
Procedure, shortened: as §1

[14] = compound: CC1=C(C(=O)N2C=CSC2=N1)CCN3CCC(=C(C4=CC=CC=C4)C5=CC=C(C=C5)F)CC3 + N=C(N)NC(=N)NCCc1ccccc1 [Phenformin] (partner 250 µM)
Procedure, shortened: as §1

[15] = compound: CC1=C(C(=O)N2C=CSC2=N1)CCN3CCC(=C(C4=CC=CC=C4)C5=CC=C(C=C5)F)CC3 + COc1cccc2cc(-c3nc([C@H]4CC[C@H](C(=O)O)CC4)n4ncnc(N)c34)[nH]c12 [OSI-027] (partner 0.5 µM)
Procedure, shortened: as §1

[16] = compound: CC1=C(C(=O)N2C=CSC2=N1)CCN3CCC(=C(C4=CC=CC=C4)C5=CC=C(C=C5)F)CC3 + CCNC(=O)c1noc(-c2cc(C(C)C)c(O)cc2O)c1-c1ccc(CN2CCOCC2)cc1 [Luminespib] (partner 0.01 µM)
Procedure, shortened: as §1

EBC-1
relative viability ([1]; first compound 0.08 µM): 0.215 | relative viability ([1]; first compound 0.8 µM): 0.194 | relative viability ([1]; first compound 2.53 µM): 0.177 | relative viability ([1]; first compound 8 µM): 0.196 | relative viability ([2]; first compound 0.08 µM): 0.812 | relative viability ([2]; first compound 0.253 µM): 0.861 | relative viability ([2]; first compound 0.8 µM): 0.789 | relative viability ([2]; first compound 2.53 µM): 0.97 | relative viability ([2]; first compound 8 µM): 0.643 | relative viability ([3]; first compound 0.08 µM): 0.196 | relative viability ([3]; first compound 0.8 µM): 0.212 | relative viability ([3]; first compound 2.53 µM): 0.191 | relative viability ([3]; first compound 8 µM): 0.225 | relative viability ([4]; first compound 0.08 µM): 0.109 | relative viability ([4]; first compound 0.253 µM): 0.101 | relative viability ([4]; first compound 0.8 µM): 0.104 | relative viability ([4]; first compound 2.53 µM): 0.108 | relative viability ([4]; first compound 8 µM): 0.106 | relative viability ([5]; first compound 0.08 µM): 0.57 | relative viability ([5]; first compound 0.253 µM): 0.64 | relative viability ([5]; first compound 0.8 µM): 0.513 | relative viability ([5]; first compound 2.53 µM): 0.437 | relative viability ([5]; first compound 8 µM): 0.529 | relative viability ([6]; first compound 0.08 µM): 0.396 | relative viability ([6]; first compound 0.253 µM): 0.344 | relative viability ([6]; first compound 0.8 µM): 0.401 | relative viability ([6]; first compound 2.53 µM): 0.316 | relative viability ([6]; first compound 8 µM): 0.369 | relative viability ([7]; first compound 0.08 µM): 0.787 | relative viability ([7]; first compound 0.253 µM): 0.804 | relative viability ([7]; first compound 0.8 µM): 1.1 | relative viability ([7]; first compound 2.53 µM): 0.763 | relative viability ([7]; first compound 8 µM): 0.62 | relative viability ([8]; first compound 0.08 µM): 0.596 | relative viability ([8]; first compound 0.253 µM): 0.756 | relative viability ([8]; first compound 0.8 µM): 0.777 | relative viability ([8]; first compound 2.53 µM): 0.772 | relative viability ([8]; first compound 8 µM): 0.463 | relative viability ([9]; first compound 0.08 µM): 0.343 | relative viability ([9]; first compound 0.253 µM): 0.37 | relative viability ([9]; first compound 0.8 µM): 0.29 | relative viability ([9]; first compound 2.53 µM): 0.355 | relative viability ([9]; first compound 8 µM): 0.366 | relative viability ([10]; 0.08 µM): 0.845 | relative viability ([10]; 0.253 µM): 0.881 | relative viability ([10]; 0.8 µM): 1.09 | relative viability ([10]; 2.53 µM): 1.02 | relative viability ([10]; 8 µM): 0.671

IA-LM
relative viability ([1]; first compound 0.253 µM): 0.713 | relative viability ([1]; first compound 0.8 µM): 1.09 | relative viability ([1]; first compound 2.53 µM): 0.944 | relative viability ([1]; first compound 8 µM): 0.502 | relative viability ([2]; first compound 0.08 µM): 0.554 | relative viability ([2]; first compound 0.253 µM): 0.576 | relative viability ([2]; first compound 0.8 µM): 0.845 | relative viability ([2]; first compound 2.53 µM): 0.988 | relative viability ([2]; first compound 8 µM): 0.465 | relative viability ([3]; first compound 0.253 µM): 0.585 | relative viability ([3]; first compound 0.8 µM): 0.789 | relative viability ([3]; first compound 2.53 µM): 0.853 | relative viability ([3]; first compound 8 µM): 0.405 | relative viability ([4]; first compound 0.08 µM): 1.1 | relative viability ([4]; first compound 0.253 µM): 1.06 | relative viability ([4]; first compound 0.8 µM): 1.24 | relative viability ([4]; first compound 2.53 µM): 1.22 | relative viability ([4]; first compound 8 µM): 0.691 | relative viability ([5]; first compound 0.08 µM): 0.621 | relative viability ([5]; first compound 0.253 µM): 0.757 | relative viability ([5]; first compound 0.8 µM): 0.711 | relative viability ([5]; first compound 2.53 µM): 0.843 | relative viability ([5]; first compound 8 µM): 0.63 | relative viability ([6]; first compound 0.08 µM): 0.841 | relative viability ([6]; first compound 0.253 µM): 0.7 | relative viability ([6]; first compound 0.8 µM): 0.823 | relative viability ([6]; first compound 2.53 µM): 0.884 | relative viability ([6]; first compound 8 µM): 0.523 | relative viability ([7]; first compound 0.08 µM): 0.538 | relative viability ([7]; first compound 0.253 µM): 0.518 | relative viability ([7]; first compound 0.8 µM): 0.822 | relative viability ([7]; first compound 2.53 µM): 0.427 | relative viability ([7]; first compound 8 µM): 0.411 | relative viability ([8]; first compound 0.08 µM): 0.93 | relative viability ([8]; first compound 0.253 µM): 0.926 | relative viability ([8]; first compound 0.8 µM): 0.848 | relative viability ([8]; first compound 2.53 µM): 0.709 | relative viability ([8]; first compound 8 µM): 0.687 | relative viability ([9]; first compound 0.253 µM): 0.354 | relative viability ([9]; first compound 0.8 µM): 0.211 | relative viability ([9]; first compound 2.53 µM): 0.345 | relative viability ([9]; first compound 8 µM): 0.234 | relative viability ([11]; first compound 0.08 µM): 0.524 | relative viability ([11]; first compound 0.253 µM): 0.895 | relative viability ([11]; first compound 0.8 µM): 1.01 | relative viability ([11]; first compound 2.53 µM): 0.756 | relative viability ([11]; first compound 8 µM): 0.417 | relative viability ([10]; 0.08 µM): 0.761 | relative viability ([10]; 0.253 µM): 0.928 | relative viability ([10]; 0.8 µM): 1.1 | relative viability ([10]; 2.53 µM): 0.944 | relative viability ([10]; 8 µM): 0.497

NCI-H1623
relative viability ([12]; first compound 0.08 µM): 0.466 | relative viability ([12]; first compound 0.253 µM): 0.434 | relative viability ([12]; first compound 0.8 µM): 0.446 | relative viability ([12]; first compound 2.53 µM): 0.475 | relative viability ([12]; first compound 8 µM): 0.419 | relative viability ([13]; first compound 0.08 µM): 0.473 | relative viability ([13]; first compound 0.253 µM): 0.57 | relative viability ([13]; first compound 0.8 µM): 0.5 | relative viability ([13]; first compound 2.53 µM): 0.536 | relative viability ([13]; first compound 8 µM): 0.549 | relative viability ([4]; first compound 0.08 µM): 0.632 | relative viability ([4]; first compound 0.253 µM): 0.968 | relative viability ([4]; first compound 0.8 µM): 0.886 | relative viability ([4]; first compound 2.53 µM): 0.819 | relative viability ([4]; first compound 8 µM): 0.826 | relative viability ([14]; first compound 0.08 µM): 0.706 | relative viability ([14]; first compound 0.253 µM): 0.618 | relative viability ([14]; first compound 0.8 µM): 0.607 | relative viability ([14]; first compound 2.53 µM): 0.564 | relative viability ([14]; first compound 8 µM): 0.594 | relative viability ([15]; first compound 0.08 µM): 0.416 | relative viability ([15]; first compound 0.253 µM): 0.411 | relative viability ([15]; first compound 0.8 µM): 0.431 | relative viability ([15]; first compound 2.53 µM): 0.436 | relative viability ([15]; first compound 8 µM): 0.433 | relative viability ([16]; first compound 0.08 µM): 0.563 | relative viability ([16]; first compound 0.253 µM): 0.631 | relative viability ([16]; first compound 0.8 µM): 0.521 | relative viability ([16]; first compound 2.53 µM): 0.472 | relative viability ([16]; first compound 8 µM): 0.35 | relative viability ([10]; 0.08 µM): 0.887 | relative viability ([10]; 0.253 µM): 1.03 | relative viability ([10]; 0.8 µM): 1.02 | relative viability ([10]; 2.53 µM): 0.96 | relative viability ([10]; 8 µM): 0.87
